# Data from US20260035407A1, “CYCLIC PEPTIDE DERIVATIVE, METHOD FOR PRODUCING SAME, AND COMPOSITION” (priority 2022, published 2026).
# System: Mouse astrocytes
# Experiment: Cell proliferation assay (BrdU method) on mouse astrocytes
# Type: cell-based
# Details: Astrocyte; mouse astrocytes, compound concentration 50 μM, 24 hours treatment in serum-free DMEM, BrdU; read-out: Cell proliferation activity, proliferative activity (%)
# Procedure: A screening test regarding the mouse astrocyte proliferation action of the compound synthesized in the Example described above was performed.
# • Cells: Mouse astrocytes • Manufacturer: Cosmo Bio • Catalog No.: AST02C • Medium: 10% FBS, 1% PS, DMEM
# • Cell proliferation assay (BrdU method)
# Mouse astrocytes were put into sleep in a T-75 flask using a medium (10% FBS, 1% Penicillin-Streptomycin, DMEM (Low Glucose)) and cultured in a CO2 incubator (37° C., 5% CO2, ambient O2, wet, and the same applies below) for 4 days. Medium exchange was performed on the second day after sleep onset. The cells were detached using Trypsin-EDTA (0.05%) and phenol red, neutralized with a medium, and centrifuged (180×g, RT, 5 minutes), then seeded in a 96-well plate at 20,000 cells/0.1 mL/well using a medium, and cultured in a CO2 incubator. On the next day, the medium was replaced with serum-free DMEM (Low Glucose), and the cells were further cultured in a CO2 incubator for 24 hours.
# Next, the medium was replaced with serum-free DMEM (Low Glucose) to which the compound was added or with compound-free-serum-free DMEM (Low Glucose), and the cells were further cultured in a CO2 incubator for 24 hours to treat the cells with the compound.
# After completion of the compound treatment, cell proliferation assay was performed using Cell Proliferation ELISA, BrdU (colometric) (MERCK, Cat. No. 11647229001). 10 μL of a BrdU labeling solution (prepared by adding a BrdU-labeled reagent to a test substance-treated medium in an amount of 1/100 vol) was added thereto, and the mixture was cultured in a CO2 incubator for 4 hours. Next, after removing the medium, FixDenat was added at 200 μL/well and incubated at room temperature for 30 minutes. Next, FixDenat was removed and a POD-labeled anti-BrdU antibody reaction solution (prepared by adding 1/100 vol of a POD-labeled anti-BrdU antibody stock solution to an antibody diluent) was added at 100 μL/well, and the cells were incubated at room temperature for 2 hours. Next, antibodies were removed, and the wells were washed 3 times with 200 μL/well of a washing liquid. After washing, 100 μL/well of a substrate solution was added, incubation was performed at room temperature for 30 minutes, and an absorbance (370 nm, control wavelength 492 nm) was measured with a plate reader. A difference between the test substance-free group and the test substance-treated group was verified by Dunnett's test in which the test substance-free group was used as a control. The significance level was 5% for both groups.
row,SMILES,activity at 50 µM
1,CN[C@H]1Cc2ccc(O)c(c2)OC[C@@H](C(=O)N[C@@H](CCC(=O)O)C(=O)O)NC(=O)[C@H](C(C)C)NC1=O [Compound 5],90 to 110%

# Same assay, conditions: Astrocyte; mouse astrocytes, compound concentration 100 μM, 24 hours treatment in serum-free DMEM, BrdU; read-out: Cell proliferation activity, proliferative activity (%)
row,SMILES,activity at 100 µM
1,CC(C)[C@@H]1NC(=O)[C@@H](N)Cc2ccc(O)c(c2)OC[C@@H](C(=O)N[C@@H](CCC(=O)O)C(=O)O)NC1=O [Compound 8],90 to 110%

# Same assay, conditions: Astrocyte; mouse astrocytes, compound concentration 200 μM, 24 hours treatment in serum-free DMEM, BrdU; read-out: Cell proliferation activity, proliferative activity (%)
row,SMILES,activity at 200 µM
1,CN[C@H]1Cc2ccc(O)c(c2)OC[C@@H](C(=O)N[C@@H](CC(=O)O)C(=O)O)NC(=O)CNC1=O [Compound 11],110 to 130%
2,CN[C@H]1Cc2ccc(O)c(c2)OC[C@@H](C(=O)N[C@@H](CCC(=O)O)C(=O)O)NC(=O)CNC1=O [Compound 3],90 to 110%

# Same assay, conditions: Astrocyte; mouse astrocytes, compound concentration 400 μM, 24 hours treatment in serum-free DMEM, BrdU; read-out: Cell proliferation activity, proliferative activity (%)
row,SMILES,activity at 400 µM
1,CN[C@H]1Cc2ccc(O)c(c2)O[C@@H](C)[C@@H](C(=O)N[C@@H](CC(=O)O)C(=O)O)NC(=O)CNC1=O [Compound 12],110 to 130%
2,N[C@H]1Cc2ccc(O)c(c2)OC[C@@H](C(=O)N[C@@H](CCC(=O)O)C(=O)O)NC(=O)CNC1=O [Compound 7],90 to 110%
3,CN[C@H]1Cc2ccc(O)c(c2)O[C@@H](C)[C@@H](C(=O)N[C@@H](CCC(=O)O)C(=O)O)NC(=O)CNC1=O [Compound 4],90 to 110%

# Same assay, conditions: Mus musculus, Astrocyte, 24 h, read-out: Cell proliferation activity, proliferative activity (%)
SMILES,activity at 50 µM,activity at 100 µM,activity at 200 µM,activity at 25 µM,activity at 1000 µM
CC[C@H](C)[C@@H]1NC(=O)[C@@H](NC)Cc2ccc(O)c(c2)O[C@](C)(CC)[C@@H](C(=O)N[C@@H](CCC(=O)O)C(=O)O)NC1=O [Compound 50],130 to 150%,–,–,–,–
CC[C@@]1(C)Oc2cc(ccc2OC)C[C@H](NC)C(=O)N[C@@H](C(C)C)C(=O)N[C@@H]1C(=O)N[C@@H](CCC(=O)O)C(=O)O [Compound 37],–,110 to 130%,–,–,–
CC[C@@]1(C)Oc2cc(ccc2O)C[C@H](N)C(=O)N[C@@H](C(C)C)C(=O)N[C@@H]1C(=O)N[C@@H](CCC(=O)O)C(=O)O [Compound 6],–,–,110 to 130%,–,–
CC[C@@]1(C)Oc2cc(ccc2O)C[C@H](NC)C(=O)N[C@@H](Cc2ccccc2)C(=O)N[C@@H]1C(=O)N[C@@H](CCC(=O)O)C(=O)O [Compound 24],–,–,130 to 150%,–,–
CN[C@H]1Cc2ccc(O)c(c2)OC(C)(C)[C@@H](C(=O)N[C@@H](CCC(=O)O)C(=O)O)NC(=O)[C@H](C(C)C)NC1=O [Compound 16],–,–,130 to 150%,–,–
CC[C@@]1(C)Oc2cc(ccc2O)C[C@H](NC)C(=O)N[C@@H](C(C)C)C(=O)N[C@@H]1C(=O)NCCCC(=O)O [Compound 18],90 to 110%,–,–,–,–
CC[C@@]1(C)Oc2cc(ccc2O)C[C@H](NC)C(=O)N(C)[C@@H](C(C)C)C(=O)N[C@@H]1C(=O)N[C@@H](CC(=O)O)C(=O)O [Compound 41],90 to 110%,–,–,–,–
CC[C@@]1(C)Oc2cc(ccc2O)C[C@H](NC)C(=O)N[C@@H](CC(C)C)C(=O)N[C@@H]1C(=O)N[C@@H](CCC(=O)O)C(=O)O [Compound 49],–,–,110 to 130%,–,–
CC[C@@]1(C)Oc2cc(ccc2O)C[C@H](NC)C(=O)N[C@@H](Cc2ccc(O)cc2)C(=O)N[C@@H]1C(=O)N[C@@H](CCC(=O)O)C(=O)O [Compound 29],–,–,90 to 110%,–,–
CC[C@@]1(C)Oc2cc(ccc2O)C[C@H](NC)C(=O)NCC(=O)N[C@@H]1C(=O)N[C@@H](CC(=O)O)C(=O)O [Compound 10],–,110 to 130%,–,–,–
CC[C@@]1(C)Oc2cc(ccc2O)C[C@H](N)C(=O)N[C@@H](C(C)C)C(=O)N[C@@H]1C(=O)N[C@@H](CC(=O)O)C(=O)O [Compound 15],–,–,90 to 110%,–,–
CC[C@@]1(C)Oc2cc(ccc2O)C[C@H](NC)C(=O)N[C@@H](C(C)C)C(=O)N(C)[C@@H]1C(=O)N[C@@H](CCC(=O)O)C(=O)O [Compound 43],–,110 to 130%,–,–,–
CC(C)[C@@H]1NC(=O)[C@@H](N)Cc2ccc(O)c(c2)OC(C)(C)[C@@H](C(=O)N[C@@H](CCC(=O)O)C(=O)O)NC1=O [Compound 19],–,–,110 to 130%,–,–
CC[C@@]1(C)Oc2cc(ccc2O)C[C@H](NC)C(=O)N[C@@H](C(C)C)C(=O)N[C@@H]1C(=O)N[C@@H](CCC(=O)O)C(=O)O [Compound 1],–,–,–,> 150%,–
CC[C@@]1(C)Oc2cc(ccc2O)C[C@H](NC)C(=O)N[C@@H](C(C)C)C(=O)N(C)[C@@H]1C(=O)N[C@@H](CC(=O)O)C(=O)O [Compound 44],–,–,110 to 130%,–,–
CC[C@@]1(C)Oc2cc(ccc2O)C[C@H](N(C)C)C(=O)N[C@@H](CCC(=O)O)C(=O)N[C@@H]1C(=O)N[C@@H](CCC(=O)O)C(=O)O [Compound 40],90 to 110%,–,–,–,–
CC[C@@]1(C)Oc2cc(ccc2O)C[C@H](NC)C(=O)N[C@@H](CCC(=O)O)C(=O)N[C@@H]1C(=O)N[C@@H](CCC(=O)O)C(=O)O [Compound 25],90 to 110%,–,–,–,–

SMILES,activity at 50 µM,activity at 100 µM,activity at 200 µM,activity at 25 µM,activity at 1000 µM
CC[C@@]1(C)Oc2cc(ccc2O)C[C@H](N(C)C)C(=O)N[C@@H](C(C)C)C(=O)N[C@@H]1C(=O)N[C@@H](CCC(=O)O)C(=O)O [Compound 23],–,–,–,–,130 to 150%
CC[C@@]1(C)Oc2cc(ccc2O)C[C@H](NC)C(=O)N[C@@H](CO)C(=O)N[C@@H]1C(=O)N[C@@H](CCC(=O)O)C(=O)O [Compound 27],–,–,90 to 110%,–,–
CC[C@@]1(C)Oc2cc(ccc2O)C[C@H](NC)C(=O)N[C@@H](C)C(=O)N[C@@H]1C(=O)N[C@@H](CCC(=O)O)C(=O)O [Compound 48],–,110 to 130%,–,–,–
CC[C@@]1(C)Nc2cc(ccc2O)C[C@H](NC)C(=O)N[C@@H](C(C)C)C(=O)N[C@@H]1C(=O)N[C@@H](CCC(=O)O)C(=O)O [Compound 22],–,–,90 to 110%,–,–
CC[C@@]1(C)Oc2cc(ccc2O)C[C@H](NC)C(=O)N[C@@H]([C@@H](C)O)C(=O)N[C@@H]1C(=O)N[C@@H](CCC(=O)O)C(=O)O [Compound 28],110 to 130%,–,–,–,–
CC[C@@]1(C)Oc2cc(ccc2O)C[C@H](NC)C(=O)N[C@@H](C(C)C)C(=O)N[C@@H]1C(=O)N[C@H](CC(=O)O)C(=O)O [Compound 21],90 to 110%,–,–,–,–
CC[C@@]1(C)Oc2cc(ccc2O)C[C@H](NC)C(=O)N[C@H](C(C)C)C(=O)N[C@@H]1C(=O)N[C@@H](CC(=O)O)C(=O)O [Compound 45],90 to 110%,–,–,–,–
CC[C@@]1(C)Oc2cc(ccc2O)C[C@H](NC)C(=O)N[C@@H](C(C)C)C(=O)N[C@@H]1C(=O)N[C@@H](CC(=O)O)C(=O)O [Compound 9],–,–,> 150%,–,–
CC[C@@]1(C)Oc2cc(ccc2O)C[C@H](NC)C(=O)N[C@@H](C(C)C)C(=O)N[C@@H]1C(=O)N[C@H](CCC(=O)O)C(=O)O [Compound 20],–,–,90 to 110%,–,–
CN[C@H]1Cc2ccc(O)c(c2)OC(C)(C)[C@@H](C(=O)N[C@@H](CC(=O)O)C(=O)O)NC(=O)[C@H](C(C)C)NC1=O [Compound 17],–,–,–,90 to 110%,–
CC[C@@]1(C)Oc2cc(ccc2O)C[C@H](NC)C(=O)N[C@@H](C(C)C)C(=O)N[C@@H]1C(=O)N(C)[C@@H](CC(=O)O)C(=O)O [Compound 47],–,–,130 to 150%,–,–
CC[C@@]1(C)Oc2cccc(c2)C[C@H](N)C(=O)NCC(=O)N[C@@H]1C(=O)N[C@@H](CCC(=O)O)C(=O)O [Compound 13],–,–,110 to 130%,–,–
CC[C@@]1(C)Oc2cc(ccc2O)C[C@H](NC)C(=O)NCC(=O)N[C@@H]1C(=O)N[C@@H](CCC(=O)O)C(=O)O [Compound 2],–,–,–,110 to 130%,–
CC[C@@]1(C)Oc2cccc(c2)C[C@H](NC)C(=O)N[C@@H](C(C)C)C(=O)N[C@@H]1C(=O)N[C@@H](CCC(=O)O)C(=O)O [Compound 14],–,–,110 to 130%,–,–
CC[C@@]1(C)Oc2cc(ccc2O)C[C@H](NC)C(=O)N[C@@H](CCCNC(=N)N)C(=O)N[C@@H]1C(=O)N[C@@H](CCC(=O)O)C(=O)O [Compound 31],–,110 to 130%,–,–,–
CC[C@@]1(C)Oc2cc(ccc2O)C[C@H](N(C)C)C(=O)N[C@@H](C(C)C)C(=O)N[C@@H]1C(=O)N[C@@H](CC(=O)O)C(=O)O [Compound 39],–,130 to 150%,–,–,–
CC[C@@]1(C)Oc2cc(ccc2O)C[C@H](NC)C(=O)N(C)[C@@H](C(C)C)C(=O)N[C@@H]1C(=O)N[C@@H](CCC(=O)O)C(=O)O [Compound 42],–,–,130 to 150%,–,–
